The NIST ThermoML archive (doi:10.1021/acs.jced.7b00227)

How the values were obtained:
[1] = Molar enthalpy of transition or fusion; settings: Crystal; DSC

O=Cc1cccc(O)c1 [3-hydroxybenzaldehyde]
Settings | vapor or sublimation pressure [kPa]
309.13 K, Crystal, Calculated from knudsen effusion weight loss | 8.9e-05
311.29 K, Crystal, Calculated from knudsen effusion weight loss | 0.000118
313.21 K, Crystal, Calculated from knudsen effusion weight loss | 0.00015
315.13 K, Crystal, Calculated from knudsen effusion weight loss | 0.000189
317.29 K, Crystal, Calculated from knudsen effusion weight loss | 0.000243
319.2 K, Crystal, Calculated from knudsen effusion weight loss | 0.000308
321.13 K, Crystal, Calculated from knudsen effusion weight loss | 0.00039
323.29 K, Crystal, Calculated from knudsen effusion weight loss | 0.00049
324.86 K, Crystal, Closed cell (Static) method | 0.00061
325.23 K, Crystal, Calculated from knudsen effusion weight loss | 0.000616
326.85 K, Crystal, Closed cell (Static) method | 0.00076
327.14 K, Crystal, Calculated from knudsen effusion weight loss | 0.000763
328.83 K, Crystal, Closed cell (Static) method | 0.00094
329.29 K, Crystal, Calculated from knudsen effusion weight loss | 0.000957
330.84 K, Crystal, Closed cell (Static) method | 0.00116
331.22 K, Crystal, Calculated from knudsen effusion weight loss | 0.001188
332.78 K, Crystal, Closed cell (Static) method | 0.00142
334.76 K, Crystal, Closed cell (Static) method | 0.00176
336.76 K, Crystal, Closed cell (Static) method | 0.00219
338.72 K, Crystal, Closed cell (Static) method | 0.00269
340.73 K, Crystal, Closed cell (Static) method | 0.00336
342.63 K, Crystal, Closed cell (Static) method | 0.00405
344.71 K, Crystal, Closed cell (Static) method | 0.00495
346.64 K, Crystal, Closed cell (Static) method | 0.006
348.61 K, Crystal, Closed cell (Static) method | 0.00733
350.55 K, Crystal, Closed cell (Static) method | 0.00897
352.54 K, Crystal, Closed cell (Static) method | 0.01085
354.49 K, Crystal, Closed cell (Static) method | 0.01289
356.45 K, Crystal, Closed cell (Static) method | 0.01575
358.45 K, Crystal, Closed cell (Static) method | 0.01898
360.41 K, Crystal, Closed cell (Static) method | 0.02275
362.4 K, Crystal, Closed cell (Static) method | 0.02727
364.34 K, Crystal, Closed cell (Static) method | 0.03226
366.32 K, Crystal, Closed cell (Static) method | 0.03884
368.21 K, Crystal, Closed cell (Static) method | 0.04637
368.31 K, Metastable liquid, Closed cell (Static) method | 0.05807
370.35 K, Metastable liquid, Closed cell (Static) method | 0.06605
372.25 K, Metastable liquid, Closed cell (Static) method | 0.07435
374.24 K, Metastable liquid, Closed cell (Static) method | 0.08475
376.14 K, Metastable liquid, Closed cell (Static) method | 0.09434
378.15 K, Closed cell (Static) method, Liquid | 0.1083
380.15 K, Closed cell (Static) method, Liquid | 0.1217
382.09 K, Closed cell (Static) method, Liquid | 0.1367
384.06 K, Closed cell (Static) method, Liquid | 0.1536
386.07 K, Closed cell (Static) method, Liquid | 0.1727
388 K, Closed cell (Static) method, Liquid | 0.1931
389.95 K, Closed cell (Static) method, Liquid | 0.2148
391.96 K, Closed cell (Static) method, Liquid | 0.2415
395.88 K, Closed cell (Static) method, Liquid | 0.3002
399.75 K, Closed cell (Static) method, Liquid | 0.3687
403.71 K, Closed cell (Static) method, Liquid | 0.454
405.31 K, Closed cell (Static) method, Liquid | 0.49
407.66 K, Closed cell (Static) method, Liquid | 0.5539
409.61 K, Closed cell (Static) method, Liquid | 0.618
411.6 K, Closed cell (Static) method, Liquid | 0.6754
413.56 K, Closed cell (Static) method, Liquid | 0.751
415.52 K, Closed cell (Static) method, Liquid | 0.814
417.46 K, Closed cell (Static) method, Liquid | 0.902
419.41 K, Closed cell (Static) method, Liquid | 0.994

Settings | Normal melting temperature [°C]
Crystal, DTA | 104.5

Settings | Molar enthalpy of transition or fusion [kcal/mol]
[1] | 6.12
